Laboratory results as given in patent publication US7786141B2 (Vertex Pharmaceuticals Incorporated, priority 2004, dated 2010).
Like-named read-outs stand apart in the source and are kept apart here.

Columns and labels:
M1 muscarinic receptor = target: T1, M1 muscarinic receptor (Homo sapiens, UniProt P11229); experiment: Functional mobilization of intracellular calcium (FLIPR) in M1-CHO cells; type: cell-based
T1 construct: expressed in transfected cells; host or cells: CHO (M1-CHO)
T1 sequence (P11229 1-460): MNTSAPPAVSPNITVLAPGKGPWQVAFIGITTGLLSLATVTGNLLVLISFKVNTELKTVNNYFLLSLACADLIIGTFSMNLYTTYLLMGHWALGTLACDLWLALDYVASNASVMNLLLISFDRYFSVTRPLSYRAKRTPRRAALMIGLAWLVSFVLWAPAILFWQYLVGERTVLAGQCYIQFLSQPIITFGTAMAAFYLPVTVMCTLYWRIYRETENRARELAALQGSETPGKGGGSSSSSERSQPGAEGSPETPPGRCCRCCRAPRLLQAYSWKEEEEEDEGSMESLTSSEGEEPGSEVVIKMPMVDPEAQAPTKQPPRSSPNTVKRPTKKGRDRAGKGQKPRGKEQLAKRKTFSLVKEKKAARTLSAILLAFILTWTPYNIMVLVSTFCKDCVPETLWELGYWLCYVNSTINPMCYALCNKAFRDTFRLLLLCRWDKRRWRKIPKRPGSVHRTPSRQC
Method in brief: (§1)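 Two modes: direct compound addition for agonism, or 15 min compound pre-incubation (or co-application) before carbachol at EC80 for inhibition. Calcium signal from Fluo-3 AM or Calcium 3 dye in CHO cells, 1 mM probenecid, pH 7.4, read 60 sec at 488/540 nm; DMSO 0.5% final.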

M4 muscarinic receptor = target: T2, M4 muscarinic receptor (Homo sapiens, UniProt P08173); experiment: Functional mobilization of intracellular calcium (FLIPR) in M4-CHO cells; type: cell-based
T2 construct: expressed in transfected cells; host or cells: CHO (M4-CHO)
T2 sequence (P08173 1-479): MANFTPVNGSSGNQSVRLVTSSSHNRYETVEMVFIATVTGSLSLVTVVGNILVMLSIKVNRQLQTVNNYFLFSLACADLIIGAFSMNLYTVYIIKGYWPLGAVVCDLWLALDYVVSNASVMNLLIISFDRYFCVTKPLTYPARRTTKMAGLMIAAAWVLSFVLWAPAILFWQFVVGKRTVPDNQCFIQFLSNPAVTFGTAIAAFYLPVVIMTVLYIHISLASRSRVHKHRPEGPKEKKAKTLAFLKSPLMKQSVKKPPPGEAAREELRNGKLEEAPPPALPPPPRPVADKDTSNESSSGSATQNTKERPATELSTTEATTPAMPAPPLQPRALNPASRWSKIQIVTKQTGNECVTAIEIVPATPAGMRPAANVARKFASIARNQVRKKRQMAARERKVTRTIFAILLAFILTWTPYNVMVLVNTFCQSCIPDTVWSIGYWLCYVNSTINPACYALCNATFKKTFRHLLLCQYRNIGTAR
Method in brief: as §1

[1] = M1 receptor, calcium mobilization
[2] = M1 receptor, calcium mobilization, read-out: M1 Efficacy
[3] = M4 receptor, calcium mobilization
[4] = M4 receptor, calcium mobilization, read-out: M4 Efficacy
[5] = Table 4, 100% efficacy is the maximum response obtained with the Carbachol control
[6] = Table 4, M1 receptor, calcium mobilization (FLIPR)
[7] = Table 4, M4 receptor, calcium mobilization (FLIPR)
[8] = Table 4, modulating M1 receptor
[9] = Table 4, modulating M4 receptor
[10] = 100% efficacy is the maximum response obtained with the Carbachol control, Table 5

| Compound | M1 Activity (M1 muscarinic receptor; [1]) | Emax (M1 muscarinic receptor; [2]) [%] | M4 Activity (M4 muscarinic receptor; [3]) | Emax (M4 muscarinic receptor; [4]) [%] | Emax (M1 muscarinic receptor; [5]) [%] | Emax (M4 muscarinic receptor; [5]) [%] | further results |
| --- | --- | --- | --- | --- | --- | --- | --- |
| CCCOC(=O)N1C2CCC1CC(N1CCC3(CC1)CN(C(=O)N(C)C)c1ccc(F)cc13)C2 (stereo not shown) [compound 360] | xx (activity was measured to be between 0.1 μM and 1.0 μM) | 65 to 85 | x (activity was measured to be greater than 1.0 μM) | < 65 |  |  |  |
| c1ccc2c(c1)CCCC21CCN(CC2CCCCC2)CC1 [compound 802] |  |  |  |  | 25 to 100 | 25 to 100 |  |
| CCOC(=O)N1CCC(N2CCC3(CC2)CN(C(C)=O)c2ccc(-c4cccc(C)c4)cc23)CC1 [compound 6] | xxx (activity was measured to be less than 0.1 μM) | 65 to 85 | xx (activity was measured to be between 0.1 μM and 1.0 μM) | 65 to 85 |  |  |  |
| CCOC(=O)N1CCC(N2CCC3(CC2)CN(C(C)=O)c2ccc(-c4ccsc4)cc23)CC1 [compound 165] | x (activity was measured to be greater than 1.0 μM) | 65 to 85 | x (activity was measured to be greater than 1.0 μM) | > 85 |  |  |  |
| CCCOC(=O)N1CCC(N2CCC3(CC2)CN(C(C)=O)c2ccccc23)CC1 [compound 910] |  |  |  |  | 25 to 100 | < 25 | M1 Activity (M1 muscarinic receptor; [6]): xxx (activity was measured to be less than 2.0 μM); M4 Activity (M4 muscarinic receptor; [7]): xx (activity was measured to be between 2.0 μM and 5.0 μM) |
| COC(=O)N1CC2(CCN(C3CC4CCC(C3)N4C(=O)O[C@@H]3CCOC3)CC2)c2cc(F)ccc21 (stereo partly shown) [compound 192] | xxx (activity was measured to be less than 0.1 μM) | 65 to 85 | x (activity was measured to be greater than 1.0 μM) | 65 to 85 |  |  |  |
| COC(=O)N1CCC(N2CCC3(CC2)CN(C(C)=O)c2ccc(F)cc23)C1 (stereo not shown) [compound 771] |  |  |  |  | < 25 | < 25 | M1 Activity (M1 muscarinic receptor; [8]): x (activity was measured to be greater than 5.0 μM); M4 Activity (M4 muscarinic receptor; [9]): x (activity was measured to be greater than 5.0 μM) |
| CN(C)C(=O)N1CC2(CCN(C[C@H]3CCN(c4cnccn4)C3)CC2)c2cc(F)ccc21 [compound 1035] |  |  |  |  |  |  | Emax (M1 muscarinic receptor; [10]): > 100%; EC50 (M1 muscarinic receptor; CHO cells expressing M1, calcium mobilization, Table 5): < 2000 nM; Emax (M4 muscarinic receptor; [10]): 25 to 100%; EC50 (M4 muscarinic receptor; CHO cells expressing M4, calcium mobilization, Table 5): < 2000 nM |
| O=C(O)C1CC2(CCN(C3CCCCC3)CC2)c2ccccc21 (stereo not shown) [compound 612] |  |  |  |  | < 25 | 25 to 100 | M1 Activity (M1 muscarinic receptor; [8]): x (activity was measured to be greater than 5.0 μM); M4 Activity (M4 muscarinic receptor; [9]): x (activity was measured to be greater than 5.0 μM) |
| O=C(C1CC1)N1CC2(CCN(C3CC4CCC(C3)N4C(=O)O[C@H]3CCOC3)CC2)c2cc(F)ccc21 (stereo partly shown) [compound 57] | xxx (activity was measured to be less than 0.1 μM) | 65 to 85 | xxx (activity was measured to be less than 0.1 μM) | 65 to 85 |  |  |  |
| CCOC(=O)N1CCC(N2CCC3(CC2)CN(C(=O)CC(C)(C)C)c2ccc(F)cc23)CC1 [compound 194] | xxx (activity was measured to be less than 0.1 μM) | > 85 | x (activity was measured to be greater than 1.0 μM) | 65 to 85 |  |  |  |
| CCOC(=O)N1CCC(N2CCC3(CC2)CN(C(=O)NCc2ccccc2)c2ccccc23)CC1 [compound 712] |  |  |  |  | 25 to 100 | 25 to 100 | M1 Activity (M1 muscarinic receptor; [8]): xxx (activity was measured to be less than 2.0 μM); M4 Activity (M4 muscarinic receptor; [9]): xxx (activity was measured to be less than 2.0 μM) |
| CC#CCN1CC2(CCN(C3CCN(C(=O)OCC)CC3)CC2)c2cc(F)ccc21 [compound 844] |  |  |  |  | 25 to 100 | 25 to 100 | M1 Activity (M1 muscarinic receptor; [6]): xxx (activity was measured to be less than 2.0 μM); M4 Activity (M4 muscarinic receptor; [7]): xxx (activity was measured to be less than 2.0 μM) |
| CCOC(=O)N1CC[C@H](CN2CCC3(CC2)CN(C(C)=O)c2cccc(C)c23)C1 [compound 940] |  |  |  |  | 25 to 100 | 25 to 100 | M1 Activity (M1 muscarinic receptor; [6]): xxx (activity was measured to be less than 2.0 μM); M4 Activity (M4 muscarinic receptor; [7]): xxx (activity was measured to be less than 2.0 μM) |
| CCC(C)C(=O)N1CCC(N2CCC3(CC2)CN(C(C)=O)c2ccccc23)CC1 (stereo not shown) [compound 1000] |  |  |  |  | 25 to 100 | 25 to 100 | M1 Activity (M1 muscarinic receptor; [6]): x (activity was measured to be greater than 5.0 μM); M4 Activity (M4 muscarinic receptor; [7]): x (activity was measured to be greater than 5.0 μM) |
| CCOC(=O)N1CCC(N2CCC3(CC2)CN(C(C)=O)c2ccc(-c4ccc(C(C)=O)cc4)cc23)CC1 [compound 221] | xx (activity was measured to be between 0.1 μM and 1.0 μM) | 65 to 85 | x (activity was measured to be greater than 1.0 μM) | < 65 |  |  |  |
| CCOC(=O)N1CCC(N2CCC3(CC2)CN(c2nccs2)c2ccc(F)cc23)CC1 [compound 879] |  |  |  |  | 25 to 100 | 25 to 100 | M1 Activity (M1 muscarinic receptor; [6]): xxx (activity was measured to be less than 2.0 μM); M4 Activity (M4 muscarinic receptor; [7]): xxx (activity was measured to be less than 2.0 μM) |
| CC(=O)N1CC2(CCN(CC3CC4CCC3CC4)CC2)c2cc(F)ccc21 (stereo not shown) [compound 366] | xx (activity was measured to be between 0.1 μM and 1.0 μM) | < 65 | x (activity was measured to be greater than 1.0 μM) | < 65 |  |  |  |
| CCOC(=O)N1CCC(N2CCC3(CC2)CN(C(C)=O)c2ccc(-c4ccc(OC)cc4)cc23)CC1 [compound 193] | x (activity was measured to be greater than 1.0 μM) | < 65 | x (activity was measured to be greater than 1.0 μM) | < 65 |  |  |  |
| CC(=O)N[C@H]1CCC2(CCN(CC3CCCC3)CC2)c2ccccc21 [compound 993] |  |  |  |  | 25 to 100 | 25 to 100 | M1 Activity (M1 muscarinic receptor; [6]): xxx (activity was measured to be less than 2.0 μM); M4 Activity (M4 muscarinic receptor; [7]): xxx (activity was measured to be less than 2.0 μM) |
| COc1ccc(N2CCC(N3CCC4(CC3)CN(C(=O)N(C)C)c3ccc(F)cc34)CC2)cc1 [compound 990] |  |  |  |  | 25 to 100 | 25 to 100 | M1 Activity (M1 muscarinic receptor; [6]): xx (activity was measured to be between 2.0 μM and 5.0 μM); M4 Activity (M4 muscarinic receptor; [7]): x (activity was measured to be greater than 5.0 μM) |
| O=C(N[C@H]1CC2(CCN(C3CCCCC3)CC2)c2ccccc21)c1ccoc1 [compound 801] |  |  |  |  | < 25 | < 25 | M1 Activity (M1 muscarinic receptor; [8]): x (activity was measured to be greater than 5.0 μM); M4 Activity (M4 muscarinic receptor; [9]): x (activity was measured to be greater than 5.0 μM) |
| CS(=O)(=O)N[C@H]1CC2(CCN(C[C@H]3C[C@H]4C=C[C@H]3C4)CC2)c2ccccc21 [compound 70] | xx (activity was measured to be between 0.1 μM and 1.0 μM) | 65 to 85 | x (activity was measured to be greater than 1.0 μM) | 65 to 85 |  |  |  |
| CC(C)C(=O)N(C)[C@H]1CC2(CCN(C[C@H]3C[C@H]4CC[C@H]3C4)CC2)c2ccccc21 [compound 246] | xx (activity was measured to be between 0.1 μM and 1.0 μM) | < 65 | xx (activity was measured to be between 0.1 μM and 1.0 μM) | > 85 |  |  |  |
| C#CCOC(=O)N1C2CCC1CC(N1CCC3(CC1)CN(C(C)=O)c1ccccc13)C2 (stereo not shown) [compound 516] |  |  |  |  | 25 to 100 | 25 to 100 | M1 Activity (M1 muscarinic receptor; [8]): xxx (activity was measured to be less than 2.0 μM); M4 Activity (M4 muscarinic receptor; [9]): xxx (activity was measured to be less than 2.0 μM) |
| CCCN1CC2(CCN(C[C@@H]3C[C@H]4C=C[C@H]3C4)CC2)c2cc(F)ccc21 [compound 670] |  |  |  |  | 25 to 100 | 25 to 100 | M1 Activity (M1 muscarinic receptor; [8]): x (activity was measured to be greater than 5.0 μM); M4 Activity (M4 muscarinic receptor; [9]): xx (activity was measured to be between 2.0 μM and 5.0 μM) |
| CC(=O)N[C@H]1CC2(CCN(C3CCC[C@@H](C)C3)CC2)c2ccccc21 (stereo partly shown) [compound 358] | xxx (activity was measured to be less than 0.1 μM) | 65 to 85 | xx (activity was measured to be between 0.1 μM and 1.0 μM) | 65 to 85 |  |  |  |
